Experimental data published in patent US7001921B1, “Cell adhesion inhibitors” (Biogen Idec MA Inc., priority 1995, dated 2006).

What follows are molecules tested against T1, VLA4 (Homo sapiens, UniProt P05556+P13612) (assay: Inhibition of VLA4-dependent adhesion to BSA-CS1 (labelled Ramos cells)). Conditions: binding of BCECF-AM labelled Ramos cells to CS1 peptide-coated wells, 2 mM MnCl2, 30 minutes at room temperature; IC50 range.
T1 construct: endogenous in cells; host or cells: Ramos cells
Assay type: cell-based
Source text: For example, the cell adhesion inhibitory activity of these compounds may be measured by determining the concentration of inhibitor required to block the binding of VLA-4-expressing cells to fibronectin- or CS1-coated plates. In this assay microtiter wells are coated with either fibronectin (containing the CS-1 sequence) or CS-1. If CS-1 is used, it must be conjugated to a carrier protein, such as bovine serum albumin, in order to bind to the wells. Once the wells are coated, varying concentrations of the test compound are then added together with appropriately labelled, VLA-4-expressing cells. Alternatively, the test compound may be added first and allowed to incubate with the coated wells prior to the addition of the cells. The cells are allowed to incubate in the wells for at least 30 minutes. Following incubation, the wells are emptied and washed. Inhibition of binding is measured by quantitating the fluorescence or radioactivity bound to the plate for each of the various concentrations of test compound, as well as for controls containing no test compound.
VLA-4-expressing cells that may be utilized in this assay include Ramos cells, Jurkat cells, A375 melanoma cells, as well as human peripheral blood lymophocytes (PBLs). The cells used in this assay may be fluorescently or radioactively labelled.
This assay was used to assess the potency of VLA4-directed inhibitory compounds of this invention.
We dissolved BSA-SMCC (Pierce Chemical, Rockford, Ill.; Catalog # 77115) in H2O at a concentration of 10 mg/mL. [SEQ ID NO:4]: […](“Cys-Tyr-CS1 peptide”), which we synthesized by conventional solid phase chemistry and purified by HPLC, was dissolved in 10 mM HEPES pH 5, 50 mM NaCl and 0.1 mM EDTA also at a concentration of 10 mg/mL. We then mixed 500 μL of BSA-SMCC, 250 μL of Cys-Tyr-CS1 peptide and 75 μL of […] and allowed the conjugation reaction to proceed for 30 minutes. We stopped the reaction by adding 1 μL of beta-mercaptoethanol. Samples were analyzed for cross-linking by SDS-PAGE. This reaction produced multiple molecules of the Cys-Tyr-CS1 peptide conjugate to each BSA molecule.
We coated the wells of a Linbro titertek polystyrene 96-well flat bottom plate (Flow Laboratories, Maclean, Va.; catalog #76-231-05) with 100 μL of the above-described BSA-CS1 solution diluted to 1 μg/mL in 0.05 M NaHCO3 (15 mM NaHCO3, 35 mM Na2CO3) pH 9.2. Some wells were not coated with CS1 in order to assess non-specific cell binding (NSB). The plate was then incubated overnight at 4° C.
Following this incubation, the contents of the wells were removed by inverting and blotting the plate. All of the wells were then blocked with 100 μL of 1% BSA in PBS, 0.02% NaN3, for a minimum of one hour at room temperature.
3. Preparation of Fluorescently Labelled Ramos Cells Ramos cells are grown, maintained and labelled in RPMI 1640 culture medium containing 1% BSA. Just prior to running the assay, we added 2′,7′-bis-(2-carboxyethyl)5 (and -6) carboxyfluorescein acetoxymethyl ester (“BCECF-AM”; Molecular Probes Inc., Eugene, Oreg.; catalog #B-1150) to a final concentration of 2 μM to a culture of Ramos cells (4×10^6 cells/mL). We incubated the cells for 20 minutes at 37° C.
Following labelling, the cells were washed twice in assay buffer (24 mM TRIS, 137 mM NaCl, 2.7 mM KCl, pH 7.4, containing 0.1% BSA and 2 mM glucose) to remove any cations originating from the culture medium. The cells were then resuspended in assay buffer to 4×10^6 cells/mL and 2 mM MnCl2 was added to upregulate VLA4 on the surface of the cells.
Immediately prior to running the assay, we removed the BSA blocking solution from the 96-well plates and washed the wells with 100 μL of assay buffer. We then added to each well 25 μL of test cell adhesion inhibitory compound at 2× the final concentration and 25 μL of the labelled Ramos cells. Final concentrations were selected across a range of anticipated IC50s, usually between 0.01 nM–10 μM. […]

T1 sequence (P13612 34-1032): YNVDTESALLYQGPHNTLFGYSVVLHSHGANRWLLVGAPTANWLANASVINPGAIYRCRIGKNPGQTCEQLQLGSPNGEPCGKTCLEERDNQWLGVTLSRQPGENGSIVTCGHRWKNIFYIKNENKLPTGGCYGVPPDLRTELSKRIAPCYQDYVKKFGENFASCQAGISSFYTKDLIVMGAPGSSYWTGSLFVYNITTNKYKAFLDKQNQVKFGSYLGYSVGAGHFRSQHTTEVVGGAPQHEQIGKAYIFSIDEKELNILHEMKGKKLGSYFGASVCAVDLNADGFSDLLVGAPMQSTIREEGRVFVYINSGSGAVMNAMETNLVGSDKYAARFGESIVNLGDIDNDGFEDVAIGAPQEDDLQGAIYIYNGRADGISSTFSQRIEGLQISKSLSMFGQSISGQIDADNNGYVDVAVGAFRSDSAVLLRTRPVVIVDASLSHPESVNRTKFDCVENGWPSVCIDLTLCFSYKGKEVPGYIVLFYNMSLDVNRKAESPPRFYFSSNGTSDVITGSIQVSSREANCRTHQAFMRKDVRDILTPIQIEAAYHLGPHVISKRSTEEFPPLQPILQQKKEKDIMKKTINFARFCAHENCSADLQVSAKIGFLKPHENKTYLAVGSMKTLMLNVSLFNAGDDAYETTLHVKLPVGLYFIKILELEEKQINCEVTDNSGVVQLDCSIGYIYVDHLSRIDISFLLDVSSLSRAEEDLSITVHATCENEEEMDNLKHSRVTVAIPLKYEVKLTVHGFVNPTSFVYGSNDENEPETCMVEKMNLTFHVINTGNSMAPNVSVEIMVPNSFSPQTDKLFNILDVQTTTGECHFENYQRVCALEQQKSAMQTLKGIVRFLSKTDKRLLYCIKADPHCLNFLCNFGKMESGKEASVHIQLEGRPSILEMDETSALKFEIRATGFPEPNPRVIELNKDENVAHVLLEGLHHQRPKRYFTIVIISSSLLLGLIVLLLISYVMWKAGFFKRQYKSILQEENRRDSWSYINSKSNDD
T1 sequence (P05556 21-798): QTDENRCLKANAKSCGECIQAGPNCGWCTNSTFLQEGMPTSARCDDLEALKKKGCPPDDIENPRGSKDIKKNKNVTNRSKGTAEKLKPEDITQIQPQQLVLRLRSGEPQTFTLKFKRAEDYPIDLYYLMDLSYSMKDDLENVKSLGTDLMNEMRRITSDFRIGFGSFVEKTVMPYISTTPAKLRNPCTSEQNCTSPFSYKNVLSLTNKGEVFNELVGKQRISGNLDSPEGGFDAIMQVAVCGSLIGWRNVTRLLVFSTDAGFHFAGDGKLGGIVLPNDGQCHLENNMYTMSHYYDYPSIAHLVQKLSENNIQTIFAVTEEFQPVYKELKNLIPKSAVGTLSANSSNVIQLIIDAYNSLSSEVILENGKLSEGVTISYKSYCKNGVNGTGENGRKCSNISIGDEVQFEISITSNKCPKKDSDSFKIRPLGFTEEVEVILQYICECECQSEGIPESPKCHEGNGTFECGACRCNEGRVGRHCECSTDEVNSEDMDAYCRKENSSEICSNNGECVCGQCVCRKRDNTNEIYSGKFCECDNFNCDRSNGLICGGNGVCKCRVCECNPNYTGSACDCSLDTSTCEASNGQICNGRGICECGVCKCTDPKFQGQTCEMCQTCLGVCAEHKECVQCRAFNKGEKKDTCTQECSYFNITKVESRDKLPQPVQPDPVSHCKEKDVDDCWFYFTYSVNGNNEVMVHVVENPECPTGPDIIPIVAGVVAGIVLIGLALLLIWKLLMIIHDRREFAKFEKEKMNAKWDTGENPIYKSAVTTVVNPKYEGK

Row | Structure (SMILES) | IC50
1 | CCc1ccccc1NC(=O)Nc1ccc(CC(=O)NC(CC(C)C)C(=O)NC(CC(=O)O)c2ccc3c(c2)OCO3)cc1 (stereo not drawn) [compound 1200] | 0.05 to 10 µM
2 | CC(C)CC(C(=O)NC(CC(=O)O)c1ccccc1)N(C)C(=O)Cc1ccc(NC(=O)Nc2ccccc2)cc1 (stereo not drawn) [compound 1053] | 0.05 to 10 µM
3 | CC(C)CC(NC(=O)CCCNC(=O)Nc1ccccc1)C(=O)NC(CC(=O)O)c1ccccc1 (stereo not drawn) [compound 1187] | > 10 µM
4 | Cc1ccccc1NC(=O)Nc1ccc(CC(=O)NC(CCCCNS(C)(=O)=O)C(=O)NC(CC(=O)O)c2ccc3c(c2)OCO3)cc1 (stereo not drawn) [compound 1294] | < 0.05 µM
5 | CC(C)CC(NC(=O)Cc1ccc(NC(=O)NCc2ccccc2)cc1)C(=O)NC(CC(=O)O)c1ccc2c(c1)OCO2 (stereo not drawn) [compound 1169] | 0.05 to 10 µM
6 | CC(C)CC(NC(=O)Cc1ccc(NC(=O)Nc2ccccc2Cl)cc1)C(=O)NC(CC(=O)O)c1ccc2c(c1)OCO2 (stereo not drawn) [compound 1185] | < 0.05 µM
7 | CC(C)CC(NC(=O)C1(c2ccccc2)CC1)C(=O)NC(CC(=O)O)c1ccccc1 (stereo not drawn) [compound 1017] | > 10 µM
8 | COc1ccc(C(CC(=O)O)NC(=O)C(CC(C)C)NC(=O)Cc2ccc(NC(=O)Nc3ccccc3)cc2)cc1 (stereo not drawn) [compound 1088] | < 0.05 µM
9 | NCC(NC(=O)Cc1ccc(NC(=O)Nc2ccccc2)cc1)C(=O)NC(CC(=O)O)c1ccccc1 (stereo not drawn) [compound 1138] | 0.05 to 10 µM
10 | CC(C)CC(NC(=O)Cc1ccc(NS(=O)(=O)c2ccccc2)cc1)C(=O)NC(CC(=O)O)c1ccccc1 (stereo not drawn) [compound 1104] | 0.05 to 10 µM
11 | CC(C)CC(NC(=O)Cc1ccc(NC(=O)Nc2ccccc2C(C)C)cc1)C(=O)NC(CC(=O)O)c1ccc2c(c1)OCO2 (stereo not drawn) [compound 1206] | < 0.05 µM
12 | CC(C)CC(NC(=O)Cc1ccc(NC(=O)Nc2ccccc2)cc1)C(=O)NC(CC(=O)O)c1ccc2c(c1)OCO2 (stereo not drawn) [compound 1050] | < 0.05 µM
13 | COC(C)C(NC(=O)Cc1ccccc1)C(=O)NC(CC(=O)O)c1ccccc1 (stereo not drawn) [compound 1117] | > 10 µM
14 | CC(C)CC(NC(=O)Cc1ccc(NC(=O)Nc2ccccc2)cc1)C(=O)NC(CC(=O)O)c1ccc2c(c1)CCC2 (stereo not drawn) [compound 1128] | 0.05 to 10 µM
15 | CC(C)CC(NC(=O)Cc1ccccc1NC(=O)OCc1ccccc1)C(=O)NC(CC(=O)O)c1ccccc1 (stereo not drawn) [compound 1027] | > 10 µM
16 | Cc1ccccc1NC(=O)Nc1ccc(CC(=O)NC(CCS(C)(=O)=O)C(=O)NC(CC(=O)O)c2ccc3c(c2)OCO3)cc1 (stereo not drawn) [compound 1245] | < 0.05 µM
17 | CC(C)CC(NC(=O)Cc1cccc([N+](=O)[O-])c1)C(=O)NC(CC(=O)O)c1ccccc1 (stereo not drawn) [compound 1113] | > 10 µM
18 | COc1cc(CC(=O)NC(CC(C)C)C(=O)NC(CC(=O)O)c2ccc3c(c2)OCO3)ccc1NC(=O)Nc1ccccc1Cl (stereo not drawn) [compound 1222] | < 0.05 µM
19 | CC(C)CC(NC(=O)CCc1ccc(NC(=O)Nc2ccccc2)cc1)C(=O)NC(CC(=O)O)c1ccccc1 (stereo not drawn) [compound 1052] | 0.05 to 10 µM
20 | O=C(O)CC(NC(=O)C(CC(=O)N1CCOCC1)NC(=O)Cc1ccc(NC(=O)Nc2ccccc2)cc1)c1ccc2c(c1)OCO2 (stereo not drawn) [compound 1170] | 0.05 to 10 µM
21 | COc1ccc(C(CC(=O)O)NC(=O)C(CC(C)C)NC(=O)Cc2ccc(NC(=O)Nc3ccccc3)cc2)cc1OC (stereo not drawn) [compound 1196] | < 0.05 µM
22 | COc1ccc(C(CC(=O)O)NC(=O)C(CCSC)NC(=O)Cc2ccccc2)cc1 (stereo not drawn) [compound 1175] | 0.05 to 10 µM
23 | CC(C)CC(NC(=O)Cc1ccc(Nc2ncc[nH]2)cc1)C(=O)NC(CC(=O)O)c1ccc2c(c1)OCO2 (stereo not drawn) [compound 1390] | 0.05 to 10 µM
24 | CC(C)CC(C(=O)NC(CC(=O)O)c1ccc2c(c1)OCO2)N(C)C(=O)Cc1ccc(NC(=O)Nc2ccccc2)cc1 (stereo not drawn) [compound 1055] | < 0.05 µM
25 | CC(C)CC(NC(=O)Cc1cccc2ccccc12)C(=O)NC(CC(=O)O)c1ccccc1 (stereo not drawn) [compound 1021] | 0.05 to 10 µM
26 | COc1ccc(C(CC(=O)O)NC(=O)C(CC(C)C)NC(=O)Cc2ccc(NC(=O)Nc3ccccn3)cc2)cc1OC (stereo not drawn) [compound 1218] | 0.05 to 10 µM

Row | Structure (SMILES) | IC50
27 | COc1ccc(C(CC(=O)O)NC(=O)C(CCSC)NC(=O)Cc2ccc(O)cc2)cc1 (stereo not drawn) [compound 1174] | 0.05 to 10 µM
28 | CC(C)CC(NC(=O)Cc1ccc([N+](=O)[O-])cc1)C(=O)NC(CC(=O)O)c1ccccc1 (stereo not drawn) [compound 1093] | > 10 µM
29 | CC(C)CC(NC(=O)Cc1ccc(O)c(O)c1)C(=O)NC(CC(=O)O)c1ccccc1 (stereo not drawn) [compound 1098] | > 10 µM
30 | COc1cccc(C(CC(=O)O)NC(=O)C(CC(C)C)NC(=O)Cc2ccc(NC(=O)Nc3ccccc3)cc2)c1 (stereo not drawn) [compound 1072] | < 0.05 µM
31 | Cc1ccccc1NC(=O)Nc1ccc(CC(=O)NC(CC(C)C)C(=O)NC(CC(=O)O)c2ccc3c(c2)OCO3)cc1 (stereo not drawn) [compound 1282] | < 0.05 µM
32 | CC(=O)Nc1ccc(CC(=O)NC(CC(C)C)C(=O)NC(CC(=O)O)c2ccccc2)cc1 (stereo not drawn) [compound 1147] | 0.05 to 10 µM
33 | CC(C)CC(NC(=O)Cc1ccc(NC(=O)OCc2ccccc2)cc1)C(=O)NC(CC(=O)O)c1ccc2c(c1)OCO2 (stereo not drawn) [compound 1073] | 0.05 to 10 µM
34 | CC(C)CC(NC(=O)OCc1ccccc1)C(=O)NC(CC(=O)O)c1ccccc1 (stereo not drawn) [compound 1085] | > 10 µM
35 | CSCCC(NC(=O)Cc1ccc(NC(=O)Nc2ccccc2)cc1)C(=O)NC(CC(=O)O)c1ccccc1 (stereo not drawn) [compound 1135] | < 0.05 µM
36 | CC(C)CC(NC(=O)Cc1cccc(N)c1)C(=O)NC(CC(=O)O)c1ccccc1 (stereo not drawn) [compound 1030] | > 10 µM
37 | CC(C)CC(NC(=O)Cc1ccc(NC(=O)Nc2ccccc2)cc1)C(=O)NC(CC(=O)O)c1ccccc1 (stereo not drawn) [compound 1060] | 0.05 to 10 µM
38 | Cc1cccc(NC(=O)Nc2ccc(CC(=O)NC(CC(C)C)C(=O)NC(CC(=O)O)c3ccc4c(c3)OCO4)cc2)c1 (stereo not drawn) [compound 1168] | 0.05 to 10 µM
39 | O=C(O)CC(NC(=O)C(CCc1ccccc1)NC(=O)Cc1ccccc1)c1ccccc1 (stereo not drawn) [compound 1123] | > 10 µM
40 | O=C(O)CC(NC(=O)C(Cc1ccccc1)NC(=O)Cc1ccc(NC(=O)Nc2ccccc2)cc1)c1ccc2c(c1)OCO2 (stereo not drawn) [compound 1129] | 0.05 to 10 µM
41 | CC(C)CC(NC(=O)C1(c2ccccc2)CC1)C(=O)NC(CC(=O)O)c1ccc2c(c1)OCO2 (stereo not drawn) [compound 1188] | > 10 µM
42 | CC(C)CC(NC(=O)Cc1ccc2ccccc2c1)C(=O)NC(CC(=O)O)c1ccccc1 (stereo not drawn) [compound 1022] | > 10 µM
43 | COc1cc(CC(=O)NC(CC(C)C)C(=O)NC(CC(=O)O)c2ccc3c(c2)OCO3)ccc1NC(=O)Nc1ccccc1C (stereo not drawn) [compound 1221] | < 0.05 µM
44 | COc1ccc(C(CC(=O)O)NC(=O)C(CC[S+](C)[O-])NC(=O)Cc2ccc(NC(=O)Nc3ccccc3)cc2)cc1 (stereo not drawn) [compound 1199] | 0.05 to 10 µM
45 | CCCCC(NC(=O)Cc1ccccc1)C(=O)NC(CC(=O)O)c1ccccc1 (stereo not drawn) [compound 1039] | 0.05 to 10 µM
46 | CC(C)CC(NC(=O)c1ccccc1)C(=O)NC(CC(=O)O)c1ccccc1 (stereo not drawn) [compound 1008] | > 10 µM
47 | COc1cccc(NC(=O)Nc2ccc(CC(=O)NC(CC(C)C)C(=O)NC(CC(=O)O)c3ccc4c(c3)OCO4)cc2)c1 (stereo not drawn) [compound 1078] | 0.05 to 10 µM
48 | CC(C)CC(NC(=O)CCc1ccccc1)C(=O)NC(CC(=O)O)c1ccccc1 (stereo not drawn) [compound 1150] | > 10 µM
49 | COc1ccc(CC(=O)NC(CC(C)C)C(=O)NC(CC(=O)O)c2ccccc2)cc1 (stereo not drawn) [compound 1092] | > 10 µM
50 | CC(C)CC(NC(=O)Cc1ccccc1)C(=O)NC(CC(=O)O)Cc1ccccc1 (stereo not drawn) [compound 1157] | > 10 µM
51 | COc1cc(CC(=O)NC(CC(C)C)C(=O)NC(CC(=O)O)c2ccccc2)cc(OC)c1O (stereo not drawn) [compound 1111] | > 10 µM
